{"source": "paper PMC8401933", "about": "(Molecules, 2021)", "assay_in_all_cases": "KINOMEscan binding", "conditions_in_all_cases": "read-out: Percent Control", "key": {"IRAK3": {"molecular_target": "T1, IRAK3 (Homo sapiens, UniProt Q9Y616)", "T1 construct": "purchased Eurofins DiscoverX KINOMEscan"}, "MYLK": {"molecular_target": "T2, MYLK (Homo sapiens, UniProt Q15746)", "T2 construct": "purchased Eurofins DiscoverX KINOMEscan"}, "SBK1": {"molecular_target": "T3, SBK1 (Homo sapiens, UniProt Q52WX2)", "T3 construct": "purchased Eurofins DiscoverX KINOMEscan"}, "WEE2": {"molecular_target": "T4, WEE2 (Homo sapiens, UniProt P0C1S8)", "T4 construct": "purchased Eurofins DiscoverX KINOMEscan"}, "FGFR3": {"molecular_target": "T5, FGFR3 (Homo sapiens, UniProt P22607)", "T5 construct": "purchased Eurofins DiscoverX KINOMEscan"}, "EPHA4": {"molecular_target": "T6, EPHA4 (Homo sapiens, UniProt P54764)", "T6 construct": "purchased Eurofins DiscoverX KINOMEscan"}, "[1]": {"molecular_target": "T7, ABL1(T315I)-nonphosphorylated (Homo sapiens, UniProt P00519, T315I)", "T7 construct": "purchased Eurofins DiscoverX KINOMEscan"}, "PKAC-beta": {"molecular_target": "T8, PKAC-beta (Homo sapiens, UniProt P22694)", "T8 construct": "purchased Eurofins DiscoverX KINOMEscan"}, "PRKX": {"molecular_target": "T9, PRKX (Homo sapiens, UniProt P51817)", "T9 construct": "purchased Eurofins DiscoverX KINOMEscan"}, "IGF1R": {"molecular_target": "T10, IGF1R (Homo sapiens, UniProt P08069)", "T10 construct": "purchased Eurofins DiscoverX KINOMEscan", "T10 sequence (P08069 31-1367)": "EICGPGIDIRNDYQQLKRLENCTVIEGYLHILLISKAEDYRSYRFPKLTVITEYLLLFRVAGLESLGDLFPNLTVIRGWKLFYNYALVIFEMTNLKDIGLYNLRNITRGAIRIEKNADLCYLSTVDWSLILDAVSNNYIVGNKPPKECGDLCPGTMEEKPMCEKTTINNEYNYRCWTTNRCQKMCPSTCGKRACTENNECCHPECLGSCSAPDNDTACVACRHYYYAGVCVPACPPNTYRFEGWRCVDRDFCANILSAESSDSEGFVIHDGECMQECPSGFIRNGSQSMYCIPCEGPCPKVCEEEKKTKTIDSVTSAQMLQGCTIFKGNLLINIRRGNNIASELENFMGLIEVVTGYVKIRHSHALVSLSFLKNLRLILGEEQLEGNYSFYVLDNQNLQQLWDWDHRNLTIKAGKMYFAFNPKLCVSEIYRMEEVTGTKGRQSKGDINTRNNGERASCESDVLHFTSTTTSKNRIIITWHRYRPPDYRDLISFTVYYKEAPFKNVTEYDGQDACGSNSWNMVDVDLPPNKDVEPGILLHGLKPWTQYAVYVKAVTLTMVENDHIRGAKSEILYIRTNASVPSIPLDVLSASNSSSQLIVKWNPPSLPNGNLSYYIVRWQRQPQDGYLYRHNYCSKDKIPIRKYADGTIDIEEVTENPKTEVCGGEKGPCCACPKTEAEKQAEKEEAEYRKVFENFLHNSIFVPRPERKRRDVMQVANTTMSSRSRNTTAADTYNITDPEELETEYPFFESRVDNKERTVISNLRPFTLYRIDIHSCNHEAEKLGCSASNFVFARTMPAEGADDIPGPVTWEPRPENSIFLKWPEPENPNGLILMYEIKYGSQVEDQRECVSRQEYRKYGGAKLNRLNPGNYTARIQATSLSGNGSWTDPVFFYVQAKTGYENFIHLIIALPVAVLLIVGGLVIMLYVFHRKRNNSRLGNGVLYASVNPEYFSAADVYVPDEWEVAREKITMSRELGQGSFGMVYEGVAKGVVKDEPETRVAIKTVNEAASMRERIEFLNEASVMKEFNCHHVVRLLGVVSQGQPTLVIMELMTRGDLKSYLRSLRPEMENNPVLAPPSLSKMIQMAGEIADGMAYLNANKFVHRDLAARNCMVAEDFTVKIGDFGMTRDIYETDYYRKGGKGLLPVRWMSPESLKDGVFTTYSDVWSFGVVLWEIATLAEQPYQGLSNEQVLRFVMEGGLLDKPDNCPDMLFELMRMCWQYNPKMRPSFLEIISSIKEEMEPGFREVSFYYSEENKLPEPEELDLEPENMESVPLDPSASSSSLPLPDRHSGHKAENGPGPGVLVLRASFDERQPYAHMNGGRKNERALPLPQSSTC"}, "ABL2": {"molecular_target": "T11, ABL2 (Homo sapiens, UniProt P42684)", "T11 construct": "purchased Eurofins DiscoverX KINOMEscan"}, "PRKCQ": {"molecular_target": "T12, PRKCQ (Homo sapiens, UniProt Q04759)", "T12 construct": "purchased Eurofins DiscoverX KINOMEscan"}, "IKK-epsilon": {"molecular_target": "T13, IKK-epsilon (Homo sapiens, UniProt Q14164)", "T13 construct": "purchased Eurofins DiscoverX KINOMEscan"}, "TLK1": {"molecular_target": "T14, TLK1 (Homo sapiens, UniProt Q9UKI8)", "T14 construct": "purchased Eurofins DiscoverX KINOMEscan"}, "[2]": {"molecular_target": "T15, RSK3(Kin.Dom.1-N-terminal) (Homo sapiens, UniProt Q15349)", "T15 construct": "RSK3(Kin.Dom.1-N-terminal); purchased Eurofins DiscoverX KINOMEscan", "T15 sequence (Q15349 1-414 limits assumed)": "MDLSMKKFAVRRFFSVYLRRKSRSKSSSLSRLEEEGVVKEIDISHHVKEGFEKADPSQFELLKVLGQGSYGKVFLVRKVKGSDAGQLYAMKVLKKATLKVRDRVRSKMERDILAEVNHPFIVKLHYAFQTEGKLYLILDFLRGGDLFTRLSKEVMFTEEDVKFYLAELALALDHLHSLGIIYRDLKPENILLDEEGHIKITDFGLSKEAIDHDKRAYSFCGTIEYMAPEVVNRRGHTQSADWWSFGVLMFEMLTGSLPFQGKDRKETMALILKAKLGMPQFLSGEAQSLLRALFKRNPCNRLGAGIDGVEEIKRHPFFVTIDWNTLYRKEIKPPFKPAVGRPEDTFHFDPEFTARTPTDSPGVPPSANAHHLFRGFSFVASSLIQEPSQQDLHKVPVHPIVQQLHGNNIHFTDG"}, "MLK3": {"molecular_target": "T16, MLK3 (Homo sapiens, UniProt Q16584)", "T16 construct": "purchased Eurofins DiscoverX KINOMEscan"}, "NEK7": {"molecular_target": "T17, NEK7 (Homo sapiens, UniProt Q8TDX7)", "T17 construct": "purchased Eurofins DiscoverX KINOMEscan"}, "MKNK2": {"molecular_target": "T18, MKNK2 (Homo sapiens, UniProt Q9HBH9)", "T18 construct": "purchased Eurofins DiscoverX KINOMEscan"}, "CDC2L2": {"molecular_target": "T19, CDC2L2 (Homo sapiens, UniProt Q9UQ88)", "T19 construct": "purchased Eurofins DiscoverX KINOMEscan"}, "NEK10": {"molecular_target": "T20, NEK10 (Homo sapiens, UniProt Q6ZWH5)", "T20 construct": "purchased Eurofins DiscoverX KINOMEscan"}, "NEK1": {"molecular_target": "T21, NEK1 (Homo sapiens, UniProt Q96PY6)", "T21 construct": "purchased Eurofins DiscoverX KINOMEscan"}, "CDKL1": {"molecular_target": "T22, CDKL1 (Homo sapiens, UniProt Q00532)", "T22 construct": "purchased Eurofins DiscoverX KINOMEscan"}, "BMPR1B": {"molecular_target": "T23, BMPR1B (Homo sapiens, UniProt O00238)", "T23 construct": "purchased Eurofins DiscoverX KINOMEscan"}, "NEK5": {"molecular_target": "T24, NEK5 (Homo sapiens, UniProt Q6P3R8)", "T24 construct": "purchased Eurofins DiscoverX KINOMEscan"}, "STK35": {"molecular_target": "T25, STK35 (Homo sapiens, UniProt Q8TDR2)", "T25 construct": "purchased Eurofins DiscoverX KINOMEscan"}, "PHKG2": {"molecular_target": "T26, PHKG2 (Homo sapiens, UniProt P15735)", "T26 construct": "purchased Eurofins DiscoverX KINOMEscan"}, "CSNK1A1L": {"molecular_target": "T27, CSNK1A1L (Homo sapiens, UniProt Q8N752)", "T27 construct": "purchased Eurofins DiscoverX KINOMEscan"}, "PIK3CG": {"molecular_target": "T28, PIK3CG (Homo sapiens, UniProt P48736)", "T28 construct": "purchased Eurofins DiscoverX KINOMEscan"}, "KIT(A829P)": {"molecular_target": "T29, KIT(A829P) (Homo sapiens, UniProt P10721, A829P)", "T29 construct": "purchased Eurofins DiscoverX KINOMEscan"}, "ERK8": {"molecular_target": "T30, ERK8 (Homo sapiens, UniProt Q8TD08)", "T30 construct": "purchased Eurofins DiscoverX KINOMEscan"}, "HASPIN": {"molecular_target": "T31, HASPIN (Homo sapiens, UniProt Q8TF76)", "T31 construct": "purchased Eurofins DiscoverX KINOMEscan"}, "[3]": {"molecular_target": "T32, ABL1(Q252H)-nonphosphorylated (Homo sapiens, UniProt P00519, Q252H)", "T32 construct": "purchased Eurofins DiscoverX KINOMEscan"}, "[4]": {"molecular_target": "T33, ABL1(F317I)-nonphosphorylated (Homo sapiens, UniProt P00519, F317I)", "T33 construct": "purchased Eurofins DiscoverX KINOMEscan"}, "CSNK2A2": {"molecular_target": "T34, CSNK2A2 (Homo sapiens, UniProt P19784)", "T34 construct": "purchased Eurofins DiscoverX KINOMEscan"}, "CDK4-cyclinD3": {"molecular_target": "T35, CDK4-cyclinD3 (Homo sapiens, UniProt P11802)", "T35 construct": "purchased Eurofins DiscoverX KINOMEscan"}, "VEGFR2": {"molecular_target": "T36, VEGFR2 (Homo sapiens, UniProt P35968)", "T36 construct": "purchased Eurofins DiscoverX KINOMEscan", "T36 sequence (P35968 20-1356)": "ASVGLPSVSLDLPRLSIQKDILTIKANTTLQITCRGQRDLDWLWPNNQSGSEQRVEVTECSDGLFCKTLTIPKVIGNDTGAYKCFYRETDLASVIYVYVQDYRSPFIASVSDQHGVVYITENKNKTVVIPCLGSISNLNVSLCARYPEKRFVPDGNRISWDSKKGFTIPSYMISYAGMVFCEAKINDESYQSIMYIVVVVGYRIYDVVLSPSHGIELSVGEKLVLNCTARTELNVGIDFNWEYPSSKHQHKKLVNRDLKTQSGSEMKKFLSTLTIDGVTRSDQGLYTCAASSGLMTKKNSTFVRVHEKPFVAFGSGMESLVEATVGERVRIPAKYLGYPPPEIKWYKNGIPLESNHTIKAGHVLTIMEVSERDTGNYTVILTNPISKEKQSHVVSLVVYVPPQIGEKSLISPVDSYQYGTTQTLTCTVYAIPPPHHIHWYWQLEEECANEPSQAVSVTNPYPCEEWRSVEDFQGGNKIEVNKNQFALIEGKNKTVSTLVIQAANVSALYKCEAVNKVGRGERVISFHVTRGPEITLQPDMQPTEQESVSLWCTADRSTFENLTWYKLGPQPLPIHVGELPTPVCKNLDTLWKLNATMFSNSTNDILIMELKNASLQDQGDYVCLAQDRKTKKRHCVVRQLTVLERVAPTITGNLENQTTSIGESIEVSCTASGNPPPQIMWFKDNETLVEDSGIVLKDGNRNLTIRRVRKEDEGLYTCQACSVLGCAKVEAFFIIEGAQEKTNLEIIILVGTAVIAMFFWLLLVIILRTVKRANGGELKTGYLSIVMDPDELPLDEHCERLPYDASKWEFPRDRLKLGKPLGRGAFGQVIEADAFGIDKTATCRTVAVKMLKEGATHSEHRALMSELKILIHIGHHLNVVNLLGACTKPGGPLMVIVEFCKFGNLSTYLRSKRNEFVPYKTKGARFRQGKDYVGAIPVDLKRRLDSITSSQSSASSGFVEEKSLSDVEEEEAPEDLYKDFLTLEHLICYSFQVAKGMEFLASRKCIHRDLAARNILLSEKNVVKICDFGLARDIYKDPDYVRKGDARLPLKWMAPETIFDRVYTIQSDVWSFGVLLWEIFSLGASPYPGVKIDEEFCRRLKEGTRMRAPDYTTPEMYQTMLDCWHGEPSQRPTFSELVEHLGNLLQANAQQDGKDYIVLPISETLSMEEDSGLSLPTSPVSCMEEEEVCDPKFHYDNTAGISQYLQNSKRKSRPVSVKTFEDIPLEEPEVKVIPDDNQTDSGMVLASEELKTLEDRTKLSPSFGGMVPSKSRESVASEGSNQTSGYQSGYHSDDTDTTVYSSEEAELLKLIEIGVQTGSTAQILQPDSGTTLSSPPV"}, "NIM1": {"molecular_target": "T37, NIM1 (Homo sapiens, UniProt Q8IY84)", "T37 construct": "purchased Eurofins DiscoverX KINOMEscan"}, "ADCK4": {"molecular_target": "T38, ADCK4 (Homo sapiens, UniProt Q96D53)", "T38 construct": "purchased Eurofins DiscoverX KINOMEscan"}, "ASK1": {"molecular_target": "T39, ASK1 (Homo sapiens, UniProt Q99683)", "T39 construct": "purchased Eurofins DiscoverX KINOMEscan"}, "MLK2": {"molecular_target": "T40, MLK2 (Homo sapiens, UniProt Q02779)", "T40 construct": "purchased Eurofins DiscoverX KINOMEscan"}, "TBK1": {"molecular_target": "T41, TBK1 (Homo sapiens, UniProt Q9UHD2)", "T41 construct": "purchased Eurofins DiscoverX KINOMEscan"}, "ACVR2B": {"molecular_target": "T42, ACVR2B (Homo sapiens, UniProt Q13705)", "T42 construct": "purchased Eurofins DiscoverX KINOMEscan"}, "ALK(L1196M)": {"molecular_target": "T43, ALK(L1196M) (Homo sapiens, UniProt Q9UM73, L1196M)", "T43 construct": "purchased Eurofins DiscoverX KINOMEscan", "T43 sequence (Q9UM73 19-1620 L1196M)": "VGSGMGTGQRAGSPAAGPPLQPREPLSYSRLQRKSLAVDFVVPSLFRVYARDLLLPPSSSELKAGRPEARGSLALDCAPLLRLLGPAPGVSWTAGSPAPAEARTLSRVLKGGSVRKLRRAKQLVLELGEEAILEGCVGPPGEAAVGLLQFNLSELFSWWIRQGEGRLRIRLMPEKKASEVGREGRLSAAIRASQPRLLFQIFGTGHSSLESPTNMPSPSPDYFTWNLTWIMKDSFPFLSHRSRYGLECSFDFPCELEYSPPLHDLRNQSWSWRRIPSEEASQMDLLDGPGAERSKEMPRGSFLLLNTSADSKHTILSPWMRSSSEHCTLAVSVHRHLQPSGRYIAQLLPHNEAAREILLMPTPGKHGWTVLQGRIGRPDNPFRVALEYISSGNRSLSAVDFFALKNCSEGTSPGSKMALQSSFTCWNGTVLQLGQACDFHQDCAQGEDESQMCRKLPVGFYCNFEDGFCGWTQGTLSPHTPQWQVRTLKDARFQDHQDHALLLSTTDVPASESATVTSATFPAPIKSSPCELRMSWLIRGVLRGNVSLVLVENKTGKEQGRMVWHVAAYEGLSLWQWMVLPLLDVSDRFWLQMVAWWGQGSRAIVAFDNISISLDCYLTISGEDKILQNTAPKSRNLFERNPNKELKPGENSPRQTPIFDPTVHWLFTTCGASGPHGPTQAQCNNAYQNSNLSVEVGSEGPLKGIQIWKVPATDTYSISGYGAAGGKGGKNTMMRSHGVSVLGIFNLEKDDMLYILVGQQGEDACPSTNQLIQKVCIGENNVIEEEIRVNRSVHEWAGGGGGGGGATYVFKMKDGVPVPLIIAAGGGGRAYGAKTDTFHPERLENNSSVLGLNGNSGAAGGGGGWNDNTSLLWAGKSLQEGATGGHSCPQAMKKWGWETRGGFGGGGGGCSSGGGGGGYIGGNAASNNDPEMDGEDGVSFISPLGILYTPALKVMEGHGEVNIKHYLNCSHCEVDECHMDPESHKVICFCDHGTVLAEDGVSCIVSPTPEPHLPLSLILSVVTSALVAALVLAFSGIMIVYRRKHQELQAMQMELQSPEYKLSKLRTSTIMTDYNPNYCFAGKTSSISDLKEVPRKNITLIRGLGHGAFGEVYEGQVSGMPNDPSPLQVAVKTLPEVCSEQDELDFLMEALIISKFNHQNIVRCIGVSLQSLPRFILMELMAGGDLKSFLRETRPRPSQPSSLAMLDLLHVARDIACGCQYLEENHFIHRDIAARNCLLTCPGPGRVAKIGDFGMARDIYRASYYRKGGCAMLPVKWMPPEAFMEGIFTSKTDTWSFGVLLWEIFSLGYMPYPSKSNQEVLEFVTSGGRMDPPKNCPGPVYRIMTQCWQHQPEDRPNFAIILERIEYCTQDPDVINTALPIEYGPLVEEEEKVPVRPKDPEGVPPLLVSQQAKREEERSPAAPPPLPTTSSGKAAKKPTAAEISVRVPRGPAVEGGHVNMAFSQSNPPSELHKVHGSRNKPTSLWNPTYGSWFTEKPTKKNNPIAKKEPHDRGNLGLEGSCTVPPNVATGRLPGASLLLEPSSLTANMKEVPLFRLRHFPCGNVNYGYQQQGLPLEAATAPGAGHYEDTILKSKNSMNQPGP"}, "ERBB2": {"molecular_target": "T44, ERBB2 (Homo sapiens, UniProt P04626)", "T44 construct": "purchased Eurofins DiscoverX KINOMEscan"}}, "data": [{"smiles": "CC(C)NC(=O)COc1cccc(-c2nc(Nc3ccc4[nH]ncc4c3)c3ccccc3n2)c1", "note": "[KD025, 2-(3-(4-((1H-indazol-5-yl)amino)quinazolin-2-yl)phenoxy)-N-isopropylacetamide]", "values": [{"measurement": "remaining binding at 10 µM", "setting": "IRAK3", "value": 96, "unit": "%"}, {"measurement": "remaining binding at 10 µM", "setting": "MYLK", "value": 66, "unit": "%"}, {"measurement": "remaining binding at 10 µM", "setting": "SBK1", "value": 100, "unit": "%"}, {"measurement": "remaining binding at 10 µM", "setting": "WEE2", "value": 82, "unit": "%"}, {"measurement": "remaining binding at 10 µM", "setting": "FGFR3", "value": 72, "unit": "%"}, {"measurement": "remaining binding at 10 µM", "setting": "EPHA4", "value": 93, "unit": "%"}, {"measurement": "remaining binding at 10 µM", "setting": "[1]", "value": 93, "unit": "%"}, {"measurement": "remaining binding at 10 µM", "setting": "PKAC-beta", "value": 98, "unit": "%"}, {"measurement": "remaining binding at 10 µM", "setting": "PRKX", "value": 81, "unit": "%"}, {"measurement": "remaining binding at 10 µM", "setting": "IGF1R", "value": 56, "unit": "%"}, {"measurement": "remaining binding at 10 µM", "setting": "ABL2", "value": 92, "unit": "%"}, {"measurement": "remaining binding at 10 µM", "setting": "PRKCQ", "value": 41, "unit": "%"}, {"measurement": "remaining binding at 10 µM", "setting": "IKK-epsilon", "value": 70, "unit": "%"}, {"measurement": "remaining binding at 10 µM", "setting": "TLK1", "value": 100, "unit": "%"}, {"measurement": "remaining binding at 10 µM", "setting": "[2]", "value": 31, "unit": "%"}, {"measurement": "remaining binding at 10 µM", "setting": "MLK3", "value": 83, "unit": "%"}, {"measurement": "remaining binding at 10 µM", "setting": "NEK7", "value": 91, "unit": "%"}, {"measurement": "remaining binding at 10 µM", "setting": "MKNK2", "value": 68, "unit": "%"}, {"measurement": "remaining binding at 10 µM", "setting": "CDC2L2", "value": 80, "unit": "%"}, {"measurement": "remaining binding at 10 µM", "setting": "NEK10", "value": 96, "unit": "%"}, {"measurement": "remaining binding at 10 µM", "setting": "NEK1", "value": 99, "unit": "%"}, {"measurement": "remaining binding at 10 µM", "setting": "CDKL1", "value": 56, "unit": "%"}, {"measurement": "remaining binding at 10 µM", "setting": "BMPR1B", "value": 76, "unit": "%"}, {"measurement": "remaining binding at 10 µM", "setting": "NEK5", "value": 83, "unit": "%"}, {"measurement": "remaining binding at 10 µM", "setting": "STK35", "value": 84, "unit": "%"}, {"measurement": "remaining binding at 10 µM", "setting": "PHKG2", "value": 100, "unit": "%"}, {"measurement": "remaining binding at 10 µM", "setting": "CSNK1A1L", "value": 89, "unit": "%"}, {"measurement": "remaining binding at 10 µM", "setting": "PIK3CG", "value": 82, "unit": "%"}, {"measurement": "remaining binding at 10 µM", "setting": "KIT(A829P)", "value": 53, "unit": "%"}, {"measurement": "remaining binding at 10 µM", "setting": "ERK8", "value": 93, "unit": "%"}, {"measurement": "remaining binding at 10 µM", "setting": "HASPIN", "value": 77, "unit": "%"}, {"measurement": "remaining binding at 10 µM", "setting": "[3]", "value": 85, "unit": "%"}, {"measurement": "remaining binding at 10 µM", "setting": "[4]", "value": 98, "unit": "%"}, {"measurement": "remaining binding at 10 µM", "setting": "CSNK2A2", "value": 0.5, "unit": "%"}, {"measurement": "remaining binding at 10 µM", "setting": "CDK4-cyclinD3", "value": 53, "unit": "%"}, {"measurement": "remaining binding at 10 µM", "setting": "VEGFR2", "value": 76, "unit": "%"}, {"measurement": "remaining binding at 10 µM", "setting": "NIM1", "value": 100, "unit": "%"}, {"measurement": "remaining binding at 10 µM", "setting": "ADCK4", "value": 100, "unit": "%"}, {"measurement": "remaining binding at 10 µM", "setting": "ASK1", "value": 100, "unit": "%"}, {"measurement": "remaining binding at 10 µM", "setting": "MLK2", "value": 100, "unit": "%"}, {"measurement": "remaining binding at 10 µM", "setting": "TBK1", "value": 66, "unit": "%"}, {"measurement": "remaining binding at 10 µM", "setting": "ACVR2B", "value": 91, "unit": "%"}, {"measurement": "remaining binding at 10 µM", "setting": "ALK(L1196M)", "value": 95, "unit": "%"}, {"measurement": "remaining binding at 10 µM", "setting": "ERBB2", "value": 81, "unit": "%"}]}]}
